Data set [1] can be described thus: Ocular PK (tissue drug levels) after SCS injection. It is filed as in vivo, Dutch belted rabbits. Here is the method: (§1) Dutch belted rabbits were used in the study.
(§2) 100 μL of the suspension was administered bilaterally to the suprachoroidal space of the eye, at a dose of 0.5 mg/eye. Two rabbits (4 eyes) were treated per time point, except at day 28, when 3 rabbits were treated. Plasma was collected at 3 hours, 1 day, 3 days, 7 days, 10 days, 14 days, 21 days, 28 days, 56 days, and 84 days post-dose. Aqueous humor, vitreous humor, peripheral retina, peripheral sclera/choroid/RPE, central retina, and central sclera/choroid/RPE punch punch tissues were collected at 1 day, 7 days, 14 days, 28 days, 56 days and 84 days post-dose. Ocular examinations and intraocular pressure (IOP) were also assessed, anterior and posterior segments, at 1 day, 7 days, 14 days, 28 days, 56 days, and 84 days post-dose. Redness, chemosis, discharge, opacity, aqueous flare, cellular flare, vitreous flare, retinal vasculature, retinal and choroidal pathology were assessed at those time points.

Data set [2] deals with T1, human plasma kallikrein (Homo sapiens, UniProt P03952).
T1 construct: purchased Enzyme Research Laboratories, South Bend, IN, USA
T1 sequence (P03952 391-638 limits assumed): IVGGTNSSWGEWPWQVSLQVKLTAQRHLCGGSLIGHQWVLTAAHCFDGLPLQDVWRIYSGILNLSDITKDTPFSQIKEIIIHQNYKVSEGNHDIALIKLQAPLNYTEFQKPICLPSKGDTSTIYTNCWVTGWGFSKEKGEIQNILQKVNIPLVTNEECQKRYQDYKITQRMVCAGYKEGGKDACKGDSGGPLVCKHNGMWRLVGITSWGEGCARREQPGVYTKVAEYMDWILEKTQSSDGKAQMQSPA
T1 sequence (P03952 20-390 partner limits assumed): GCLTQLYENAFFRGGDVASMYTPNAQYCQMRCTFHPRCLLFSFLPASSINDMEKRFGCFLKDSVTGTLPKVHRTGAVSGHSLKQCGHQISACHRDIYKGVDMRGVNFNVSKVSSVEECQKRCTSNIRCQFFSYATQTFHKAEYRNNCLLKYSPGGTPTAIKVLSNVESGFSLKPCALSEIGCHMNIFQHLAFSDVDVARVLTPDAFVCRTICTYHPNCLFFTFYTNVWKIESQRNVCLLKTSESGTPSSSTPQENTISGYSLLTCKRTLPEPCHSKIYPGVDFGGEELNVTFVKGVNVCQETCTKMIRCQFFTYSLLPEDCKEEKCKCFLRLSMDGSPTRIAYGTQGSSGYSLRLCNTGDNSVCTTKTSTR
The data set can be described thus: Plasma kallikrein activity, chromogenic substrate S2302. Format: biochemical. The procedure:
The effect of compounds of the disclosure on human plasma kallikrein activity is determined by the method described in Zhang et al. (Medicinal Chemistry, 2006, No. 6, p 547). Briefly, plasma kallikrein activity is determined using a chromogenic substrate (S2302). In these experiments, 2 nM plasma kallikrein (Enzyme Research Laboratories, South Bend, IN, USA) is incubated with 80 μM S2302 (H-D-Pro-Phe-Arg-p-nitroaniline) in the absence or presence of increasing concentrations of compounds of the disclosure in a final volume of 200 μL Tris-HCI buffer (200 mM NaCl; 2.5 mM CaCl2; 50 mM Tris-HCl, pH 7.8). Assay reactions were initiated by adding enzyme into pre-mixed solution of inhibitors and substrate (enzyme initiated reaction) After incubation at 30° C., the activity of plasma kallikrein is measured as a change in absorbance at OD 405 nm (for example using a BioTek PowerWave X340 Microplate Reader, Winooski, VT, USA or equivalent device). Data are analyzed using appropriate software (for example, Four Parameter Logistic Curve, SigmaPlot software, Systat Software, Inc., San Jose, CA, USA or equivalent).

The nature of data set [3]: Aqueous solubility (deionized water). Format: physicochemical. As to conditions: room temperature.
Data set [4] in a line: Partition coefficient (octanol-phosphate buffer). The following applies: pH 7.4. It is filed as physicochemical.
Data set [5] can be described thus: Systemic (plasma) PK after SCS injection. Format: in vivo, Dutch belted rabbits. The following applies: SCS 0.5 mg/eye, FIG. 5. Here is the method: as §1, §2
For data set [6], the system named is Dutch belted rabbits. The data set can be described thus: Ocular tolerability after suprachoroidal (SCS) injection. It is filed as in vivo. The procedure:
as §1, §2

Data set [7] is described as follows: pKa by UV-metric method. Format: physicochemical. As to conditions: read-out: pKa Values (second value).

SMILES strings stand for the structures.

The text below walks through data of patent publication US12589093B2, “Plasma kallikrein inhibitors and methods of use thereof in ocular disorders” (BIOCRYST PHARMACEUTICALS, INC., priority 2019, dated 2026).

For the compound `C=Cc1cc(C(=O)Nc2ccc(C(=N)N)cc2)c(-c2ccc(C(=O)NCC3CC3)nc2C(=O)O)cc1OC.Cl` [BCX4161, avoralstat], the “duration of highly favorable PK profile” value in data set [1] (0.5% suspension, single SCS injection) was “at least 3 months”. Besides, the “drug levels in central and peripheral RPE/choroid/sclera” value in data set [1] (SCS 0.5 mg/eye, FIG. 1) is “High drug levels”. The “drug levels in central and peripheral retina” value in data set [1] (SCS 0.5 mg/eye, FIG. 2) is given as “High levels”. For the same compound, in data set [1] (SCS 0.5 mg/eye, FIG. 4C), the “drug levels in the aqueous humor” value is on record as “low levels”. The “drug levels in the vitreous humor” value in data set [1] (SCS 0.5 mg/eye, FIGS. 4A and 4B) was “moderate to low levels”. Further, in data set [1] (after SCS injection 0.5 mg/eye), the “time high drug levels present in central and peripheral RPE/choroid/sclera” value is on record as ≥ 84 days; the “time high drug levels present in central and peripheral retina” value is ≥ 84 days. The “inhibition of human plasma kallikrein activity (in words)” value in data set [2] was “potent and highly specific inhibitor”. This compound also showed a solubility in data set [3] of 20 to 40 µg/mL. Moreover, the “Partition Coefficient (octanol-phosphate buffer), log D7.4” value in data set [4] is reported as “log D7.4 = 1.9”. Also, the systemic exposure result in data set [5] is “minimal to no systemic exposure”. In addition, the tolerability result in data set [6] (0.5% suspension, single SCS injection, 0.5 mg/eye) is “well tolerated”. Besides, the ocular exam score in data set [6] (all observations, SCS 0.5 mg/eye) was found to be 0. Besides, the “conjunctival redness and chemosis” value in data set [6] (day 1 post-dose, SCS 0.5 mg/eye) is “Mild”. Moreover, the adverse events entry in data set [6] (days 7, 14, 28, 56, or 84 post-dose, SCS 0.5 mg/eye) was “No adverse events”. The pKa in data set [7] was determined as 11.4.
